Laboratory results taken from patent publication US5554542A, “Immunoassay for isothiazolones” (Rohm and Haas Company, priority 1993, dated 1996).

Tests used:
Type in all cases: binding, mouse
[1] = tested on: antibodies produced by cell culture 89-147EH9; assay: CIEIA for detection of biocides, four inhibitors at several concentrations; details: for 10 Minute Absorbances × 1000: no inhibitor 515
Protocol: The supernatants from wells with growing colonies of hybridomas were screened using CIEIA. Ninety-six well polystyrene EIA ([…]) plates were coated with 100 μl of 651 conjugated to BSA (651-BSA) for at least two hours at room temperature or 16 hours at 4° C. Unbound material was washed from the wells with five washes of PBS-T. […] The wells then received 50 μl of supernatant from each cell culture, so that each supernatant was reacted with either buffer, 651 or 573 (inhibitors). […] The wells were incubated for 30-60 minutes at room temperature. They were then washed five times with PBS-T to remove unbound material and each well then received 100 μl of a 1 μg/ml solution of biotinylated horse anti-mouse IgG (Vector Laboratories, Burlingame, Calif.), and the assay continued as described for the ELISA, supra.

[2] = tested on: antibodies in hybridoma culture supernatants (CF10, EH9, EC2, EC2 IB8); assay: CIEIA of hybridoma culture supernatants; details: for Inhibition of antibody binding to coating antigen: cell culture 89-147EH9, coating antigen 651-BSA; for Inhibitors (Absorbance): coating 651-BSA
Protocol: (§1) The supernatants from wells with growing colonies of hybridomas were screened using CIEIA. Ninety-six well polystyrene EIA ([…]) plates were coated with 100 μl of 651 conjugated to BSA (651-BSA) for at least two hours at room temperature or 16 hours at 4° C. Unbound material was washed from the wells with five washes of PBS-T. The wells then received 50 μl of buffer alone (PBS-T) or inhibitors, either 651 or 573, each diluted to 2 ppm in buffer. The wells then received 50 μl of supernatant from each cell culture, so that each supernatant was reacted with either buffer, 651 or 573 (inhibitors). […] The wells were incubated for 30-60 minutes at room temperature. They were then washed five times with PBS-T to remove unbound material and each well then received 100 μl of a 1 μg/ml solution of biotinylated horse anti-mouse IgG (Vector Laboratories, Burlingame, Calif.), and the assay continued as described for the ELISA, supra.
If the antibodies in a supernatant were reactive with one or both of the inhibitors in solution in the wells, the antibody molecules, or a percentage of the antibody molecules, would bind to the inhibitors, and would therefore form an antibody-inhibitor complex which would stay in solution and be removed from the plate during the washing step. In such a case, the binding of the antibody to the inhibitor would reduce the number of antibody molecules available to bind to the coating antigen, 651-BSA. Because fewer antibody molecules are attached to the 651-BSA, there is a reduction in the number of biotinylated horse anti-mouse IgG molecules bound, resulting in fewer molecules of avidin-peroxidase complex being bound, resulting in reduced hydrolysis of the substrate, leading ultimately to lower absorbances.
It is possible to manipulate the CIEIA to achieve greater inhibition by varying the concentrations of coating antigen, antibodies and detection molecules (such as the horse anti-mouse IgG and the avidin-peroxidase complex). Such "optimization" of the CIEIA is used to obtain higher levels of sensitivity and allow the use of lower concentrations (i.e. higher dilutions) of the monoclonal antibodies.

[3] = tested on: antibodies of 89-147EH9 clones; assay: CIEIA reactivity of 89-147EH9 clones with compounds 651 and 573
Protocol: as §1
In order to assure that the antibodies reactive with compound 651 were produced by cells of the identical genetic makeup, it was necessary to derive clones of cell culture 89--147EH9. Cloning was accomplished by first determining the total number of viable cells in a population of 89-147EH9 cells. The cell population was then diluted to a density of 4-5 cells per ml of cell culture medium. Two hundred μl of this cell suspension was then planted in each well of four 96 well cell culture dishes, designated I-IV. Fourteen days later, each well was checked by microscopic evaluation for growing colonies of cells. Those with only a single loci of cells were designated monoclonal.
Subsequently, each colony was tested for reactivity in the ELISA described previously. Of the colonies, several were selected for expansion and retesting by CIEIA for reactivity with both 651 and 573.

[4] = tested on: antibodies in hybridoma culture supernatants (CF10, EH9, EC2, EC2 IB8); assay: CIEIA of hybridoma culture supernatants; details: culture EH9, supernatant dilution 1:4, tested versus 0.4 ppm of inhibitor, coating 651-BSA; no inhibitor 0.515
[5] = inhibitor concentration 0.08 ppm
[6] = inhibitor concentration 0.4 ppm
[7] = culture CF10, supernatant dilution 1:2, inhibitor 1 PPM, no inhibitor 0.485
[8] = culture CF10, supernatant dilution 1:2.5, inhibitor 1 PPM, no inhibitor 0.121
[9] = culture EC2, supernatant dilution 1:2, inhibitor 1 PPM, no inhibitor 0.847
[10] = culture EC2, supernatant dilution 1:12, inhibitor 1 PPM, no inhibitor 0.917
[11] = culture EC2 IB8 (a clone of 89147EC2), supernatant dilution 1:6, inhibitor 1 PPM, no inhibitor 0.169
[12] = culture EH9, supernatant dilution 1:2, inhibitor 1 PPM, no inhibitor 0.170
[13] = culture EH9, supernatant dilution 1:2.5, inhibitor 1 PPM, no inhibitor 0.386
[14] = clone IA5, inhibitor 1 PPM, PBS 528
[15] = clone ID5, inhibitor 1 PPM, PBS 584
[16] = clone ID8, inhibitor 1 PPM, PBS 746
[17] = clone IID1, inhibitor 1 PPM, PBS 060
[18] = clone IIIH6, inhibitor 1 PPM, PBS 647
[19] = clone IVE1, inhibitor 1 PPM, PBS 818
[20] = clone IVE4, inhibitor 1 PPM, PBS 595
[21] = clone IVF12, inhibitor 1 PPM, PBS 090
[22] = clone IVH2, inhibitor 1 PPM, PBS 680

Structure (SMILES) | 10 Minute Absorbances × 1000 [1, 5] | 10 Minute Absorbances × 1000 [1, 6] | 10 Minute Absorbances × 1000 ([1]; inhibitor concentration 2 ppm) | 10 Minute Absorbances × 1000 ([1]; inhibitor concentration 10 ppm) | Inhibition of antibody binding to coating antigen [2] | Inhibitors (Absorbance) [2, 7] | Inhibitors (Absorbance) [2, 8] | Inhibitors (Absorbance) [2, 9] | Inhibitors (Absorbance) [2, 10] | Inhibitors (Absorbance) [2, 11] | Inhibitors (Absorbance) [2, 12] | Inhibitors (Absorbance) [2, 13] | % I (percentage inhibition) ([3]; clone IA5, inhibitor 1 PPM) [%] | Absorbances × 1000 [3, 14] | % I (percentage inhibition) ([3]; clone ID5, inhibitor 1 PPM) [%] | Absorbances × 1000 [3, 15] | % I (percentage inhibition) ([3]; clone ID8, inhibitor 1 PPM) [%] | Absorbances × 1000 [3, 16] | % I (percentage inhibition) ([3]; clone IID1, inhibitor 1 PPM) [%] | Absorbances × 1000 [3, 17] | further results
Cn1sccc1=O [compound 573, 2-methyl-3-isothiazolone] | 590 | 461 | 504 | 344 | inhibitable | 0.479 | 0.099 | 0.520 | 0.872 | 0.121 | 0.117 | 0.135 | 10.8 | 471 | 0.0 | 671 | 0.0 | 1068 | < 1.0 | 057 | 10 Minute Absorbances × 1000 ([1]; inhibitor concentration 50 ppm): 191; % I (percentage inhibition) ([3]; clone IIIH6, inhibitor 1 PPM): 0.0%; Absorbances × 1000 [3, 18]: 705; % I (percentage inhibition) ([3]; clone IVE1, inhibitor 1 PPM): 34.1%; Absorbances × 1000 [3, 19]: 539; % I (percentage inhibition) ([3]; clone IVE4, inhibitor 1 PPM): 9.4%; Absorbances × 1000 [3, 20]: 539; % I (percentage inhibition) ([3]; clone IVF12, inhibitor 1 PPM): 18.9%; Absorbances × 1000 [3, 21]: 073; % I (percentage inhibition) ([3]; clone IVH2, inhibitor 1 PPM): 7.0%; Absorbances × 1000 [3, 22]: 632; Inhibitors (Absorbance) [4]: 0.504
Cn1sc(Cl)cc1=O [compound 651, 5-chloro-2-methyl-3-isothiazolone] | 448 | 338 | 185 | 106 | inhibitable | 0.419 | 0.119 | 0.652 | 0.910 | 0.124 | 0.150 | 0.122 | 34.1 | 348 | 26.5 | 429 | 0.0 | 807 | < 1.0 | 055 | Relative reactivity of the antibodies with the compounds tested ([1]; 89-147EH9 antibodies, 651 versus similar amounts of other biocides): more strongly reactive; 10 Minute Absorbances × 1000 ([1]; inhibitor concentration 0.016 ppm): 491; % I (percentage inhibition) ([3]; clone IIIH6, inhibitor 1 PPM): 27.2%; Absorbances × 1000 [3, 18]: 471; % I (percentage inhibition) ([3]; clone IVE1, inhibitor 1 PPM): 44.7%; Absorbances × 1000 [3, 19]: 452; % I (percentage inhibition) ([3]; clone IVE4, inhibitor 1 PPM): 39.3%; Absorbances × 1000 [3, 20]: 361; % I (percentage inhibition) ([3]; clone IVF12, inhibitor 1 PPM): 27.8%; Absorbances × 1000 [3, 21]: 065; % I (percentage inhibition) ([3]; clone IVH2, inhibitor 1 PPM): 46.2%; Absorbances × 1000 [3, 22]: 366; Inhibitors (Absorbance) [4]: 0.186
